Data as given in US4546176A, “7-Carboxymethoxyphenylacetamido-3-cephem derivatives and antibacterial preparations containing the same” (Eisai Co., Ltd., priority 1982, dated 1985).
Values after ≈ are worked out from the molar mass of the structure shown.

Tests used:
Pseud. aeruginosa EP-01 = experiment: Antibacterial activities (MIC), Pseud. aeruginosa EP-01; type: cell-based; details: Pseudomonas aeruginosa, EP01
Description: (§1) (1) Antibacterial activities (MIC):

Escher. coli NIHJ = experiment: Antibacterial activities (MIC), Escher. coli NIHJ; type: cell-based; details: Escherichia coli
Description: as §1

Ser. marcescens ES-75 = experiment: Antibacterial activities (MIC), Ser. marcescens ES-75; type: cell-based; details: Serratia marcescens, ES75
Description: as §1

[1] = Acute toxicity LD50 (mouse, oral); details: in vivo
Description: The acute toxicity values [LD50 (mouse, oral)] of the following compounds were each 4 g/kg or greater;

[2] = Urinary excretion rate in mice; type: in vivo, ICR male mice; details: mouse, sc, 20 mg/kg subcutaneous, urine up to 6 hours, bioassay
Protocol: ICR male mice (body weight: 20-30 g) were used. Each compound was dissolved in an M/15 phosphate buffer (pH 7.0) and administered in an amount of 20 mg/kg by the subcutaneous route. Urine was collected up to 6 hours after the administration. The concentration of the compound was determined by the bioassey technique (the agar-well method) using Pseudomonas aeruginosa as a test microorganism. On the basis of the thus-determined concentration, its excreted amount was obtained. The urinary excretion rate was then calculated from the excreted amount based on the amount administered.

Solubility in water = type: physicochemical; details: in distilled water at 25° C.
Staph. aureus 209-P = experiment: Antibacterial activities (MIC), Staph. aureus 209-P; type: cell-based; details: Staphylococcus aureus
Description: as §1

Kleb. pneumoniae EK-6 = experiment: Antibacterial activities (MIC), Kleb. pneumoniae EK-6; type: cell-based; details: Klebsiella pneumoniae, EK6
Description: as §1

Proteus morganii EP-14 = experiment: Antibacterial activities (MIC), Proteus morganii EP-14; type: cell-based; details: Morganella morganii, EP14
Description: as §1

| MIC (Pseud. aeruginosa EP-01) [µg/mL] | MIC (Escher. coli NIHJ) [µg/mL] | MIC (Ser. marcescens ES-75) [µg/mL] | dose excreted at 6 h [2] [%] | solubility (Solubility in water) [mg/mL] | MIC (Staph. aureus 209-P) [µg/mL] | MIC (Kleb. pneumoniae EK-6) [µg/mL] | MIC (Proteus morganii EP-14) [µg/mL] | Structure (SMILES) | LD50 [1] [mg/kg] |
| --- | --- | --- | --- | --- | --- | --- | --- | --- | --- |
| 0.2 | 0.8 | 0.6 | 39 | ≥ 300 | 100 | 0.1 | 12.5 | Cc1oc2cc(O)c(O)cc2c(=O)c1C(=O)N[C@@H](C(=O)N[C@@H]1C(=O)N2C(C(=O)[O-])=C(C[n+]3ccccc3)CS[C@H]12)c1ccc(OCC(=O)O)cc1 [Example 40, Sodium 7β-[D-2-(4-carboxymethoxyphenyl)-2-(6,7-dihydroxy-2-methyl-4-oxo-4H-1-benzopyran-3-carboxamido)acetamido]-3-pyridiniummethyl-3-cephem-4-carboxylate] | – |
| – | – | – | – | ≥ 200 | – | – | – | CC(=O)OCC1=C(C(=O)O)N2C(=O)[C@@H](NC(=O)[C@H](NC(=O)c3coc4cc(O)c(O)cc4c3=O)c3ccc(OCC(=O)O)cc3)[C@H]2SC1 [Example 2] | – |
| 0.1 | 0.8 | 0.8 | 38 | ≥ 300 | 25 | ≤ 0.05 | 6.25 | NC(=O)c1cc[n+](CC2=C(C(=O)[O-])N3C(=O)[C@@H](NC(=O)[C@H](NC(=O)c4coc5cc(O)c(O)cc5c4=O)c4ccc(OCC(=O)O)cc4)[C@H]3SC2)cc1 [Example 45, Sodium 7β-[D-2-(4-carboxymethoxyphenyl)-2-(6,7-dihydroxy-4-oxo-4H-1-benzopyran-3-carboxamido)-acetamido]-3-(4-carbamoylpyridinium)methyl-3-cephem-4-carboxylate] | – |
| ≤ 0.05 | 0.8 | 0.2 | – | ≥ 200 | 6.25 | ≤ 0.05 | 0.8 | Cn1nnnc1SCC1=C(C(=O)O)N2C(=O)[C@@H](NC(=O)[C@H](NC(=O)c3coc4cc(O)c(O)cc4c3=O)c3ccc(OCC(=O)O)cc3)[C@H]2SC1 [Example 4, Disodium 7β-[D-2-(4-carboxymethoxyphenyl)-2-(6,7-dihydroxy-4-oxo-4H-1-benzopyran-3-carboxamido)-acetamido]-3-(1-methyl-5-tetrazolyl)thiomethyl-3-cephem-4-carboxylate] | – |
| 0.4 | 0.4 | 0.8 | 62 | ≥ 300 | 50 | ≤ 0.05 | 25 | O=C(O)COc1ccc([C@@H](NC(=O)c2coc3cc(O)c(O)cc3c2=O)C(=O)N[C@@H]2C(=O)N3C(C(=O)[O-])=C(C[n+]4ccc(CCS(=O)(=O)O)cc4)CS[C@H]23)cc1 [Example 46, Disodium 7β-[D-2-(4-carboxymethoxyphenyl)-2-(6,7-dihydroxy-4-oxo-4H-1-benzopyran-3-carboxamido)-acetamido]-3-[4-(2-sulfoethyl)pyridinium]methyl-3-cephem-4-carboxylate] | – |
| – | – | – | – | – | – | – | – | Cc1oc2cc(O)c(O)cc2c(=O)c1C(=O)N[C@@H](C(=O)N[C@@H]1C(=O)N2C(C(=O)[O-])=C(C[n+]3ccc(C(N)=O)cc3)CS[C@H]12)c1ccc(OCC(=O)O)cc1 [Example 57, 7β-[D-2-(4-Carboxymethoxyphenyl)-2-(6,7-dihydroxy-2-methyl-4-oxo-4H-1-benzopyran-3-carboxamido)acetamido]-3-(4-carbamoylpyridinium)methyl-3-cephem-4-carboxylate] | ≥ 4000 |
| 0.1 | 0.8 | 0.2 | 20 | ≥ 300 | 50 | ≤ 0.05 | 1.56 | O=C(O)COc1ccc([C@@H](NC(=O)c2coc3cc(O)c(O)cc3c2=O)C(=O)N[C@@H]2C(=O)N3C(C(=O)O)=C(CSc4nnnn4CC(=O)O)CS[C@H]23)cc1 [Example 8, Trisodium 7β-[D-2-(4-carboxymethoxyphenyl)-2-(6,7-dihydroxy-4-oxo-4H-1-benzopyran-3-carboxamido)-acetamido]-3-(1-carboxymethyl-5-tetrazolyl)thiomethyl-3-cephem-4-carboxylate] | – |
| 0.8 | 0.8 | 0.8 | 16 | – | 100 | 0.1 | 6.25 | O=C(O)COc1ccc([C@@H](NC(=O)c2coc3c(O)c(O)ccc3c2=O)C(=O)N[C@@H]2C(=O)N3C(C(=O)O)=C(CSc4nnnn4CC(=O)O)CS[C@H]23)cc1 [Example 20, Trisodium 7β-[D-2-(4-carboxymethoxyphenyl)-2-(7,8-dihydroxy-4-oxo-4H-1-benzopyran-3-carboxamido)-acetamido]-3-(1-carboxymethyl-5-tetrazolyl)thiomethyl-3-cephem-4-carboxylate] | – |
| 0.1 | 0.8 | 0.8 | 40 | ≥ 300 | 25 | ≤ 0.05 | 25 | O=C(O)COc1ccc([C@@H](NC(=O)c2coc3cc(O)c(O)cc3c2=O)C(=O)N[C@@H]2C(=O)N3C(C(=O)[O-])=C(C[n+]4ccccc4)CS[C@H]23)cc1 [Example 44, Sodium 7β-[D-2-(4-carboxymethoxyphenyl)-2-(6,7-dihydroxy-4-oxo-4H-1-benzopyran-3-carboxamido)-acetamido]-3-pyridiniummethyl-3-cephem-4-carboxylate] | – |

| Structure (SMILES) | MIC (Pseud. aeruginosa EP-01) [µg/mL] | MIC (Escher. coli NIHJ) [µg/mL] | MIC (Ser. marcescens ES-75) [µg/mL] | dose excreted at 6 h [2] [%] | solubility (Solubility in water) [mg/mL] | MIC (Staph. aureus 209-P) [µg/mL] | MIC (Kleb. pneumoniae EK-6) [µg/mL] | MIC (Proteus morganii EP-14) [µg/mL] | LD50 [1] [mg/kg] |
| --- | --- | --- | --- | --- | --- | --- | --- | --- | --- |
| Cc1oc2cc(O)c(O)cc2c(=O)c1C(=O)N[C@@H](C(=O)N[C@@H]1C(=O)N2C(C(=O)[O-])=C(C[n+]3ccc(CCS(=O)(=O)O)cc3)CS[C@H]12)c1ccc(OCC(=O)O)cc1 [Example 42, Disodium 7β-[D-2-(4-carboxymethoxyphenyl)-2-(6,7-dihydroxy-2-methyl-4-oxo-4H-1-benzopyran-3-carboxamido)acetamido]-3-[4-(2-sulfoethyl)-pyridinium]methyl-3-cephem-4-carboxylate] | 0.2 | 0.2 | 0.2 | 46 | ≥ 300 | 100 | ≤ 0.05 | 3.13 | ≥ 4000 |
| CCn1cc(C(=O)N[C@@H](C(=O)N[C@@H]2C(=O)N3C(C(=O)[O-])=C(C[n+]4ccc(C(N)=O)cc4)CS[C@H]23)c2ccc(OCC(=O)O)cc2)c(=O)c2cc(O)c(O)cc21 [Example 53, Sodium 7β-[D-2-(4-carboxymethoxyphenyl)-2-(6,7-dihydroxy-1-ethyl-1,4-dihydro-4-oxoquinoline-3-carboxamido)acetamido]-3-(4-carbamoylpyridinium)-methyl-3-cephem-4-carboxylate] | 0.2 | 0.4 | 0.8 | 13 | ≥ 300 | 50 | ≤ 0.05 | 6.25 | ≥ 4000 |
| Cc1oc2cc(O)c(O)cc2c(=O)c1C(=O)N[C@@H](C(=O)N[C@@H]1C(=O)N2C(C(=O)[O-])=C(C[n+]3ccc(C(N)=O)cc3)CS[C@H]12)c1ccc(OCC(=O)O)cc1 [Example 41, Sodium 7β-[D-2-(4-carboxymethoxyphenyl)-2-(6,7-dihydroxy-2-methyl-4-oxo-4H-1-benzopyran-3-carboxamido)acetamido]-3-(4-carbamoylpyridinium)-methyl-3-cephem-4-carboxylate] | 0.2 | 0.4 | 0.4 | 74 | ≥ 300 | 50 | ≤ 0.05 | 6.25 | – |
| CCn1cc(C(=O)NC(C(=O)NC2C(=O)N3C(C(=O)O)=C(CSc4nnnn4C)CSC23)c2ccc(OCC(=O)O)cc2)c(=O)c2cc(OC(C)=O)c(OC(C)=O)cc21 (stereo not drawn) [Example 11] | 0.1 (≈ 0.118 µM) | 0.2 (≈ 0.235 µM) | ≤ 0.05 | – | – | 12.5 (≈ 14.7 µM) | ≤ 0.05 | 0.4 (≈ 0.47 µM) | ≥ 4000 |
| Cc1oc2cc(O)c(O)cc2c(=O)c1C(=O)N[C@@H](C(=O)N[C@@H]1C(=O)N2C(C(=O)[O-])=C(C[n+]3cccc(CC(=O)O)c3)CS[C@H]12)c1ccc(OCC(=O)O)cc1 [Example 43, Disodium 7β-[D-2-(4-carboxymethoxyphenyl)-2-(6,7-dihydroxy-2-methyl-4-oxo-4H-1-benzopyran-3-carboxamido)acetamido]-3-(3-carboxymethylpyridinium)-methyl-3-cephem-4-carboxylate] | 0.1 | 0.8 | 0.2 | 25 | ≥ 300 | 100 | ≤ 0.05 | 12.5 | ≥ 4000 |
| Cc1oc2cc(O)c(O)cc2c(=O)c1C(=O)N[C@@H](C(=O)N[C@@H]1C(=O)N2C(C(=O)[O-])=C(C[n+]3ccc(C(=O)O)cc3)CS[C@H]12)c1ccc(OCC(=O)O)cc1 [Example 55, Disodium 7β-[D-2-(4-carboxymethoxyphenyl)-2-(6,7-dihydroxy-2-methyl-4-oxo-4H-1-benzopyran-3-carboxamido)acetamido]-3-(4-carboxypyridinium)-methyl-3-cephem-4-carboxylate] | ≤ 0.05 | 0.4 | 0.4 | – | – | 100 | ≤ 0.05 | 6.25 | ≥ 4000 |
